This is an account of results in patent publication US20090137496A1, “Use of Active Ingredients Containing Hydroxystilbene for Preventing and/or Treating Osteoporosis” (MATSUSHITA ELECTRIC INSUTRIAL CO., LTD., priority 2005, published 2009).

A short description of data set [1]: Accumulation of ERr 731 ingredients in dog plasma, 100/300/1000 mg/kg/day, day 1. It counts as in vivo, dog (beagle). The settings on record: male and female dogs, ERr 731 100, 300, 1000 mg/kg/day, day 1. The method, then: (§1) These plasma samples were processed as follows: 500 μl of plasma were mixed with 25 μl of an internal standard working solution (2.5 ng/μl rhaponticin or rhapontigenin in methanol) and then mixed with 500 μl of isotonic NaCl solution and 2.5 ml of diethyl ether/butanol (9/1; v/v). After shaking and centrifugation (10 minutes at 4600 rpm), about 2 ml of the supernatant were removed and dried under a stream of nitrogen (at 60° C.). The pellet was taken up in 50 μl of methanol. Addition of 200 μl of distilled water was followed by renewed mixing, and 200 μl were pipetted into autosampler tubes (light-protected). 30 μl of the samples were injected for analysis into an LC-MS/MS system (PE Sciex API 3000). Chromatographic separation of the analytes took place on a Phenomenex Polymer X column with a gradient of an ammonium buffer solution and an acetonitrile/methanol mixture as mobile phase.
On day 1, 5 ml of blood were taken from the animals after 0, 0.5, 1, 2, 4, 8 and 24 hours in each case, and plasma was obtained. The analysis as described in section a) was carried out thereon in order to detect rhaponticin, deoxyrhaponticin, rhapontigenin, deoxyrhapontigenin, resveratrol and piceatannol in blood. The results of the test are depicted in FIG. 2a.

The nature of data set [2]: Dissolving tests with ERr 731 in ethanol and glycerol. In kind it is physicochemical.
Data set [3] concerns the target T1, ERβ (Homo sapiens, UniProt Q92731).
T1 construct: host or cells: U2OS (human osteosarcoma)
As to the kind of experiment: ERβ activation in the osteosarcoma cell line U2OS. In kind it is cell-based.

Data set [4] deals with T2, ERα (Homo sapiens, UniProt P03372).
T2 construct: host or cells: U2OS-ERα (human osteosarcoma), stably transfected, pSG5 vector
T2 sequence (P03372 1-595): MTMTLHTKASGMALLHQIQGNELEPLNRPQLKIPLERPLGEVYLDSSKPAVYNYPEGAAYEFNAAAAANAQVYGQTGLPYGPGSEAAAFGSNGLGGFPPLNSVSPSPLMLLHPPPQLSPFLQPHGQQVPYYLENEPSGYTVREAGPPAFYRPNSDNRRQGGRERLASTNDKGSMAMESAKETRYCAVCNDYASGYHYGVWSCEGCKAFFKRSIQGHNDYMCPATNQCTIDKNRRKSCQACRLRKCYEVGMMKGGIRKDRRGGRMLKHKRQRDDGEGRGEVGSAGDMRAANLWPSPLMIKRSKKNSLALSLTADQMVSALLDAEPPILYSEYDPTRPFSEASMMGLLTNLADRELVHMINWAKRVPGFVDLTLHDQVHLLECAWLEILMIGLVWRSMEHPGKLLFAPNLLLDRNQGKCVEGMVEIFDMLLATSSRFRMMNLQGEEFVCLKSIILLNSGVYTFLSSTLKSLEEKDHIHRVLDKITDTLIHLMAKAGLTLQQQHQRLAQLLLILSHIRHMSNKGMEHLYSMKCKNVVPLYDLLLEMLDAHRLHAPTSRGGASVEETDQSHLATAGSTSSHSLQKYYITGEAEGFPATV
As to the kind of experiment: ERα activation, luciferase reporter gene in U2OS-ERα osteosarcoma cells. The settings on record: U2OS stably transfected with ERα, 24 h. In kind it is cell-based. The method, then: U2OS cells are human, epithelially organized osteosarcoma cells originally isolated in 1964 from the tibia of a child by J. Ponten and E. Saksela (Ponten and Saksela 1967: Two established in vitro cell lines from human mesenchymal tumours, Int. J. Cancer 2: 434-447).
A suitable medium for the cells is DMEM/F12 (Dulbecco's modified Eagle's Medium), to which 10% fetal calf serum was added for culturing the cells, and 5% fetal calf serum was added for the actual experiment. The latter was previously made steroid-free (DCC medium) using dextran-coated activated carbon (dextran-coated charcoal; DCC). Incubation took place at 37° C. with 5% v/v CO2. In order to ensure comparability between the individual experiments, the passages of the cells used for the experiments never exceeded 20 after thawing from liquid nitrogen.
Besides native U2OS cells, use was made of U2OS-ERα cells (Schering A G, Berlin) which were stably transfected with ERα (pSG5 vector, Stratagene) and merely required transfection with the reporter gene (ERE)2-tk-Luc (pGL3 basic vector, Promega). […]
After the cells were treated with the test or control substances for 24 h it was possible to measure the luciferase activity as reporter gene using a kit from Promega, as stated by the manufacturer. The protein content was determined using the BCA® kit (Sigma).

A short description of data set [5]: Pharmacokinetics of ERr 731 ingredients in the blood of a volunteer after oral intake (plasma LC-MS/MS). In kind it is in vivo, human. As to conditions: for detection in the blood: oral 10 tablets = 40 mg ERr 731, plasma. On the procedure: Subsequently, 10 ml of blood was taken at various times (as indicated in FIG. 1) and the plasma was obtained by centrifugation.
as §1

Data set [6] in a line: Solubility statements. It counts as physicochemical. The text has this: Use is made of this for its isolation. Since, besides other organic acids, the root in particular has a high content of oxalic acid (⅔ in water-soluble and ⅓ in bound form), this must be neutralized during the isolation in order to prevent the pH drifting into the acidic range and thus to inhibit premature precipitation of the rhaponticin. This is achieved by using calcium oxide. The latter is employed as quicklime solution with a pH of 12.4-12.6.
Hydroxypropylmethylcellulose (hypromellose USP) or another gel former is allowed to swell with 2-10% by weight in purified water. […] The amount of glycerol may be up to 50% of the weight of the gel. […] If necessary, preservatives (e.g. sorbic acid and its salts) can be added to the gel. Adjustment of the pH is also possible. As alternative to glycerol it is also possible to use 30-86% by volume ethanol.

[7] abbreviates: Test A: 200 mg of dry extract in 50 ml of glycerol R.
[8] abbreviates: Test B: 200 mg of dry extract in 50 ml of ethanol 30% R.
The mark [9] stands for this setting: Test C: 200 mg of dry extract in 50 ml of ethanol 50% R.
Setting [10] is: Test D: 200 mg of dry extract in 50 ml of ethanol 86% R.

Entries after “also recorded” stand apart in the source; their conditions may differ.

T1 sequence (Q92731 whole entry): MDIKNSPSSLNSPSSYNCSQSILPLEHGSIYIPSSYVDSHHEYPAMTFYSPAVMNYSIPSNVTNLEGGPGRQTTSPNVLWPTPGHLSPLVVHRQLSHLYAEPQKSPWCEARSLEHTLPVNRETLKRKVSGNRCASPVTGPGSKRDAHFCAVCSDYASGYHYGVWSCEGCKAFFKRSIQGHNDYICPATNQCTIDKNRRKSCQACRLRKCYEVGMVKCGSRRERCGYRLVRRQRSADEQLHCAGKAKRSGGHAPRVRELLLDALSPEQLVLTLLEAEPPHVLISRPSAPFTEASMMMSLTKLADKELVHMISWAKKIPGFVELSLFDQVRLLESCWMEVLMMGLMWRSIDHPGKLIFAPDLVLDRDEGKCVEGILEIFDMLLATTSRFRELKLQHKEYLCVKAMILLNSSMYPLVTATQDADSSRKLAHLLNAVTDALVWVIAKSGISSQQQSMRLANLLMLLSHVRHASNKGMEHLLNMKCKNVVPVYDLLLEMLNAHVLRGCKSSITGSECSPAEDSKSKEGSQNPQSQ

Turning to `COc1ccc(/C=C/c2cc(O)cc(O[C@@H]3O[C@H](CO)[C@@H](O)[C@H](O)[C@H]3O)c2)cc1` [deoxyrhaponticin, 3,5′-Dihydroxy-4′-methoxystilbene 3-O-β-D-glucopyranoside], in data set [1], the “detection / accumulation (AUC 0-24 h) in dog plasma” value (“detection / accumulation” for short) was “dose-dependent accumulation”. Besides, the “content found in solution” value in data set [2] (setting [7]) is reported as 27.1% deoxyrhaponticin; in data set [2] (setting [8]) it was 25.2% deoxyrhaponticin; in data set [2] (setting [9]), 29.0% deoxyrhaponticin; in data set [2] (setting [10]), 29.5% deoxyrhaponticin. Moreover, the “dissolved, of theory” value is reported as “(90.6% of theory)” in data set [2] (setting [7]), “(84.2% of theory)” in data set [2] (setting [8]), “(97.0% of theory)” in data set [2] (setting [9]) and “(98.7% of theory)” in data set [2] (setting [10]).

With `Oc1cc(O)cc(/C=C/c2ccc(O)c(O)c2)c1` [piceatannol, Piceatannol (astringenin)], the “activation of ERβ” value in data set [3] is recorded as “activate relatively specifically only the ERβ”. Moreover, in data set [4], the “activation of ER-α” value is on record as “no significant effects; also recorded: no activation”.

Take `Oc1ccc(/C=C/c2cc(O)cc(O)c2)cc1` [resveratrol, Resveratrol]: the “activation of ER-α” value in data set [4] is “no significant effects; also recorded: no activation”.

In the case of `COc1ccc(C=Cc2cc(O)cc(O[C@@H]3O[C@H](CO)[C@@H](O)[C@H](O)[C@H]3O)c2)cc1O` [rhaponticin, 3,3′,5-Trihydroxy-4′-methoxystilbene 3-O-β-D-glucopyranoside], the “detection / accumulation” value in data set [1] was “dose-dependent accumulation”. The “time of maximum in the blood” value in data set [5] (oral 40 mg ERr 731) fell in the range of 3 to 4 h. Besides, the “detection in the blood” value in data set [5] was “detected; also recorded: detectable”. Also, the “content found in solution” value in data set [2] (setting [7]) is 55.1% rhaponticin; in data set [2] (setting [8]), 52.2% rhaponticin; in data set [2] (setting [9]) it was 58.8% rhaponticin; in data set [2] (setting [10]), 59.8% rhaponticin. Further, the “dissolved, of theory” value in data set [2] (setting [7]) is listed as “(89.0% of theory)”; in data set [2] (setting [8]) it was “(84.3% of theory)”; in data set [2] (setting [9]), “(95.0% of theory)”; in data set [2] (setting [10]), “(96.6% of theory)”. Besides, the “solubility in aqueous solutions with an alkaline pH range” value in data set [6] (alkaline pH) is recorded as “readily soluble”. Moreover, the “behaviour in the acidic pH range” value in data set [6] (pH 3.4-3.6) is “precipitated”.

Regarding `COc1ccc(/C=C/c2cc(O)cc(O)c2)cc1O` [rhapontigenin, 3,3′,5-Trihydroxy-4′-methoxystilbene], the “detection / accumulation” value in data set [1] is listed as “undetectable”. Moreover, in data set [5], the “detection in the blood” value was “could not be found and not”.
